Test system: UBCLP expression in LNCaP cells
Assay: Expression of UBCLP in LNCaP prostate cancer cells treated with casodex or R1881
Type: cell-based, human
Conditions: 100 nM casodex versus 1 nM R1881, RPMI-1640 with 5% charcoal stripped serum, mRNA expression analysis
Protocol: In order to examine the effect of casodex, an anti-androgen, on the expression of UBCLP, LNCaP cells (androgen-responsive prostate cancer cells) were grown to 70% confluence in RPMI-1640 supplemented with 10% FBS. The cultures were then pretreated for 24 hours in dye-free RPMI-1640 containing 5% charcoal stripped serum. The cultures were then treated with either 1 nM R1881 or 100 nM casodex in RPMI-1640 containing 5% charcoal stripped serum prior to harvesting an extraction of total mRNA for expression analysis.
In CWR22 cells (a human primary prostate xenograft cell line; Wainstein et al. (1994) Cancer Res. 54:6059-52) implanted in male nude mice, UBCLP expression levels decrease about 5-fold in 21 days after castration. In CWR22R cells (Chen et al. (1998) Cancer Res 58:2777-83), an androgen-independent variant of CWR22 cells, UBCLP appears to be constitutively expressed with respect to androgen.

CC(O)(CS(=O)(=O)c1ccc(F)cc1)C(=O)Nc1ccc(C#N)c(C(F)(F)F)c1 (stereo not shown) [Casodex]
drop in UBCLP expression: 3 fold

Source: patent publication US6485921B1, “UBCLP and uses thereof” (Millennium Pharmaceuticals, Inc., priority 1998, dated 2002)
